Where “and” joins values, the source holds several entries; their conditions need not be identical. Identical values can stand only once. Like-named read-outs stand apart in the source and are kept apart here.

Series [1] can be described thus: Formation of clear solution in aqueous vehicles. It is filed as physicochemical. The conditions noted are these: de-ionized water and 5% dextrose/water solutions.
The test system of series [2] is human HL60 promyelocytic leukemia cells. The conditions noted are these: in vivo.
Series [3] deals with murine P388 leukemic tumor cells. Briefly: in vivo. The procedure: (§1) For example, B6D2F1 mice (n=8/group) were inoculated subcutaneously (sc) in the right flank with 1×10^6 murine L1210 leukemic tumor cells. […] Test agents were administered on multiple treatment regimen (q3d×5) to yield optimal dose schedule benefit. Vehicle control treated mice served as the negative control group; mice treated with the bioreduced parent compounds, vincristine and vinblastine, dosed at their […] (MTDs), served as the positive control groups. Tumors were measured with calipers twice weekly and tumor volume calculated using the formula: Tumor Volume (mm^3)=((width)^2×length)/2. Animals were monitored for signs of toxicity and weighed daily for the first 5 days of the study and then twice-weekly until the study end. As pre-defined in the protocol, each animal was actively euthanized when its tumor reached the pre-determined endpoint size of 2000 mm^3 or at the conclusion of the study (day 37) whichever came first. The time to endpoint (TTE) was calculated for each mouse as TTE (days)=(log10(endpoint volume mm^3)−b)/m where b is the intercept and m is the slope of the line obtained by linear regression of a log-transformed tumor growth data set. Treatment outcome was determined from tumor growth delay (TGD) which is defined as the increase in median TTE in a treatment (T) group as compared to the control (C) group (TGD=T−C) expressed in days or as a percentage of the median TTE of the control group % TGD=((T−C)/C)×100. […] Statistical significance between the treated vs. control groups was evaluated by logrank analysis.
(§2) This model was developed by subcutaneously inoculating B6D2F1 mice (n=8/group) with 1×10^6 murine P388 leukemic tumor cells using similar methodology to that described above for L1210. […] Agents were administered on multiple treatment regimen (q3d×5) to yield optimal dose schedule benefit. Efficacy of treatment with the N-oxide analogs was determined by Tumor Growth Delay (TGD) and Kaplan-Meier survival analysis as described for L1210, the exception being that the conclusion of the study was day 45 or the predefined endpoint size of 2000 mm^3 whichever came first. Vehicle control treated mice served as the negative control group; mice treated with the standard agents, vincristine and vinblastine, dosed at their MTDs, served as the positive control groups.

The subject of series [4] is multiple human solid tumor cell lines. Description: Hypoxia-induced cytotoxicity across cell lines (HCR range). It is filed as cell-based.
Description: (§4) Tumor cell line were cultured in DMEM-10% FBS under standard conditions. One-hundred mm plastic culture dishes were seeded with 1×10^6 tumor cells and treated with vinca alkaloids or N-oxide analogs at a dose range of 0.01-100 nM. Cells were exposed with gentle rocking to a constant level of low oxygen (0.2% O2-5% CO2-balance N2) in a hypoxia apparatus (INVIVO2400 Hypoxia Workstation, Ruskin Technology) for 14 hr at 37° C. Identically treated cells were incubated under normoxia (air-5% CO2) at 37° C. Cells were harvested and replated in fresh medium at a density of 1×10^3 cells/well in 48-well plastic culture plates to assess viability 24-72 hr later. Briefly, Alamar Blue was added to replicate wells on Day 0 and Day 3, and cells were incubated for a further 3-6 hr at 37° C. before fluorescence readings using a plate reader (530-560 nm excitation, 590 emission). The percent inhibition of proliferation was calculated and plotted against control-treated cells at each drug concentration. […] The Hypoxia Cytotoxicity Ratio (HCR) was determined as the ratio of the IC50 of the compound under normoxic conditions vs. hypoxic conditions.
Series [5] has as its system FaDU head and neck tumor cell lines.
Description: as §4
Series [6] has as its system human K562 myelogenous leukemia cells. Description: in vivo. The protocol: (§3) In one example, female nude mice (n=10) were inoculated subcutaneously with 15×10^6 human K562 myelogenous leukemia cells in a 1:1 ratio with matrigel on the right flank. Tumor volumes were monitored and calculated using the formula: Tumor volume=(a^2×b/2) where ‘a’ is the smallest diameter and ‘b’ is the largest diameter. Once the established tumors reached approximately 75-150 mm^3 (individual tumor volumes may range from […]) the mice were assigned to the various vehicle control and treatment groups such that the mean tumor volumes in the treated groups were within 10% of the mean tumor weight in the vehicle control group. On the same day (day 1) and days 4, 7, 10, and 13, vinca-alkaloid N-oxide analogs (VCR-NO, VBL-NO) were administered intravenously according to a q3d×5 schedule. Mice were also treated with vehicle (negative control) and the standard agents, vinblastine and vincristine (positive controls). Tumor volumes were recorded three times a week starting when tumors were palpable and including the day of study termination. Animals were monitored for signs of toxicity and body weights were recorded twice a week starting on the first day of treatment and including the day of study termination. […] The mean day of sacrifice were calculated to determine the tumor growth delay and tumor growth inhibition effects of each test article as compared to vehicle control. […] Statistical significance between the treated vs. control groups was evaluated by logrank analysis.

The subject of series [7] is A549 non-small cell lung carcinoma.
Description: as §4
Series [8] deals with Human H460 lung adenocarcinoma tumor cells.
Description: Cells were exposed with gentle rocking to a constant level of low oxygen (0.2% O2-5% CO2-balance N2) in a hypoxia apparatus (INVIVO2400 Hypoxia Workstation, Ruskin Technology) for 12 hr at 37° C. Identically treated cells were incubated under normoxia (air-5% CO2) at 37° C. Cells were harvested and lysed in DNA lysis buffer (20 mM Tris-HCL, pH 8.0, 1 mM EDTA, 0.1% Triton X-100) and stored at −80° C. for analysis of DNA content and LC/MS/MS analysis. […] Lysates were mixed with 150 ml of methanol containing 0.1% acetic acid and vinca alkaloid internal standard, and vortexed for 10 min, and centrifuged for 5 min at 18000 g. Clarified supernatants were transferred to HPLC vials fitted with glass inserts and analyzed by LC-MS/MS. Chromatography was performed on an Acquity HPLC system fitted with an Acquity BEH C18 column, and used 0.1% (v:v) formic acid in water for mobile phase A, and 0.1% (v:v) formic acid in acetonitrile for mobile phase B. Mass spectral analysis was performed using a Micromass Quattro Micro triple quadupole mass spectrometer.
The amounts of each compound were calculated from standard curves.
Series [9] has as its system human HT29 colorectal adenocarcinoma. More on the design: species or system mouse. The conditions noted are these: in vivo.
Series [10] deals with human H460 lung adenocarcinoma.
Description: as §4
Series [11] in a line: in vivo. Conditions: B6D2F1, mouse, in vivo, iv. The procedure:
as §1, §2

The test system of series [12] is human H460 lung adenocarcinoma. Description: cells. The conditions noted are these: NCI-H460, 14 h.
Description: as §4
A short description of series [13]: in vivo. Conditions: female, nude, mouse, iv. The protocol: as §3
A short description of series [14]: in vivo. Conditions: female, nude, mouse, iv. This is another data set of the same source.
Series [15] has as its system murine L1210 leukemic tumor cells. Briefly: in vivo. Conditions: L1210. The protocol:
as §1

The nature of series [16]: in vivo. The conditions noted are these: B6D2F1, mouse, in vivo, iv. The procedure:
as §1
The source holds these as a separate data set.

The test system of series [17] is human H460 lung adenocarcinoma cells.
Description: Human H460 lung adenocarcinoma tumor cells were cultured in DMEM-10% FBS under standard conditions. One-hundred mm plastic culture dishes were seeded with 1×10^6 tumor cells/dish and treated with vinca alkaloids or N-oxide analogs at a 0.01-100 nM dose range. Cells were exposed with gentle rocking to a constant level of low oxygen (0.2, 1% or 5% O2-5% CO2-balance N2) in a hypoxia apparatus (INVIVO2400 Hypoxia Workstation, Ruskin Technology) for 14 hr at 37° C. Identically treated cells were incubated under normoxia (air-5% CO2) at 37° C. Cells were harvested and replated in fresh medium at a density of 1×10^3 cells/well in 48-well plastic culture plates to assess viability 24-72 hr later. Briefly, Alamar Blue was added to replicate wells on Day 0 and Day 3, and cells were incubated for a further 3-6 hr at 37° C. before fluorescence readings using a plate reader (530-560 nm excitation, 590 emission). The percent inhibition of proliferation was calculated and plotted against control-treated cells at each drug concentration. […] The Hypoxia Cytotoxicity Ratio (HCR) was defined as ((IC50 in Hypoxia)/(IC50 in Normoxia)).
Experiment in series [18]: not given
This is another data set of the same source.

Series [19] relates to H460 lung carcinoma tumor cells. It is filed as cell-based, human.
In series [20] the test system is metastatic cancer of the colon or rectum. Conditions: 350 mg/m^2 30-minute iv infusion once every 3 weeks; 132 previously treated patients; cited from earlier work.
For series [21] the following is noted: cited from earlier work.
Setting [22] is: Grade III-IV, Naïve pts (n = 48).
Where [23] appears, read: Grade III-IV, Pre-treated patients (n = 165).

Description for SiHa: as §4

For Vinblastine N-Oxide Dihydrochloride, the “forms a stable clear solution at” value in [1] is “about 20 mg/mL”.
On to `CC[C@]1(O)C[C@@H]2C[C@](C(=O)OC)(c3cc4c(cc3OC)N(C=O)[C@H]3[C@@](O)(C(=O)OC)[C@@H](OC(C)=O)[C@]5(CC)C=CCN6CC[C@]43[C@@H]65)c3[nH]c4ccccc4c3CC[N@+]([O-])(C2)C1` [Vincristine N-oxide, Vincristine N′b-Oxide], for which the “Tumor Growth Inhibition” value in [2] is 94% and 96%; in [6], 69% and 84% and 60%. Besides, the “body weight loss / gross symptoms of toxicity” value (mouse, in vivo) is recorded as “no evidence of significant body weight loss or gross symptoms of toxicity”. Further, the “Tumor Growth Delay” value in series [3] (mouse, in vivo) was 76% and 54%; in series [9], 42%. For the same compound, the HCR values in [4] is recorded as 5-25. The “Hypoxia Cytotoxicity Ratio (HCR)” value is recorded as 6 in [5] and 11.2 in series [7]. For the same compound, the “bioreduction to parent compound” value in series [8] is “bioreduced to vincristine under hypoxia exposure”.
The term IC50 denotes the midpoint of a concentration-inhibition curve. `CC[C@]1(O)C[C@H]2CN(CCc3c([nH]c4ccccc34)[C@@](C(=O)OC)(c3cc4c(cc3OC)N(C=O)[C@H]3[C@@](O)(C(=O)OC)[C@H](OC(C)=O)[C@]5(CC)C=CCN6CC[C@]43[C@@H]65)C2)C1` [Vincristine, vincristine]: the body weight loss entry (0.6-1 mg/kg iv q3d×5, during the course of treatment) was “significant body weight loss”. Also, in series [10], the “Hypoxia Cytotoxicity Ratio (HCR)” value was found to be 1.1. For the same compound, the “Median Survival” value in series [3] (P388, 1 mg/kg i.v. q3d×5) was 20.8 days; in series [15] (1 mg/kg i.v. q3d×5), 19.6 days. In addition, the “Tumor Growth Delay” value in series [3] (P388, 1 mg/kg i.v. q3d×5) is reported as 54%; in [15] (1 mg/kg i.v. q3d×5) it was 8%. Moreover, the MTD was found to be 1 mg/kg in the series “in vivo [11]”, 1.5 mg/kg in the series “in vivo [13]”, 1.5 mg/kg in the series “in vivo [14]” and 1 mg/kg in “in vivo [16]”. Further, the 50% inhibitory concentration (IC50) in [12] (read-out: IC50 Air) was determined as 17 nM; in series [12] (read-out: IC50 Hypoxia), 15 nM.
As to `CC[C@]1(O)C[C@H]2C[C@](C(=O)OC)(c3cc4c(cc3OC)N(C)[C@H]3[C@@](O)(C(=O)OC)[C@H](OC(C)=O)[C@]5(CC)C=CCN6CC[C@]43[C@@H]65)c3[nH]c4ccccc4c3CC[N@+]([O-])(C2)C1` [Vinblastine N-oxide, Vinblastine N′b-Oxide], the “Tumor Growth Inhibition” value in series [2] is 91% and 94%; in series [6], 77% and 89%. Further, the “cytotoxicity vs oxygen concentration” value in series [17] was “Increased cytotoxicity”. Moreover, the HCR values in series [4] is recorded as 3-21. Besides, the “Hypoxia Cytotoxicity Ratio (HCR)” value with SiHa is reported as 4.3; in series [5], 7.5. Further, the “body weight loss / gross symptoms of toxicity” value in series [18] (mouse, in vivo) is “no evidence of significant body weight loss or gross symptoms of toxicity”. In [19], the “Hypoxia Cytotoxicity Ratio” value is ~20. Further, in series [19], the “IC50 inhibitory activity after activation under hypoxia” value is on record as “low nanomolar”. In [8], the “bioreduction to parent compound” value is “bioreduced to vinblastine under hypoxia exposure”.
Regarding `CCc1c2c(nc3ccc(OC(=O)N4CCC(N5CCCCC5)CC4)cc13)-c1cc3c(c(=O)n1C2)COC(=O)[C@]3(O)CC` [CPT-11, 7-ethyl-10[4-(1-piperidino)-1-piperidino]carbonyloxycamptothecin, reference compound], the intent-to-treat response rate in series [20] was 12.1%. In series [21] (setting [22]), the Alopecia entry is given as “Alopecia 54%”, the “Delayed Diarrhea” value is “Delayed Diarrhea 35%”, the Nausea/Vomiting result was “Nausea/Vomiting 13%” and the Thrombocytopenia result is recorded as “Thrombocytopenia 2%”. Moreover, the “Leukopenia/Neutropenia Toxicity” value in series [21] (Grade III-IV, Naïve pts) was 48%. Besides, in series [21] (setting [23]), the Alopecia entry is on record as “Alopecia 53%”, the “Delayed Diarrhea” value is given as “Delayed Diarrhea 39%”, the Nausea/Vomiting result is “Nausea/Vomiting 22%” and the Thrombocytopenia result is recorded as “Thrombocytopenia 3%”. Further, the “Leukopenia/Neutropenia Toxicity” value in [21] (Grade III-IV, Pretreated pts) is 47%. In [21] (Grade III-IV), the “Documented Infection” value is reported as 5% and the “Neutropenic Fever” value is on record as “Neutropenic Fever 14%”. The “Anemia Grade III-IV” value in [21] (Naïve pts (n = 48)) was 8%. The “Anemia Grade III-IV” value in series [21] (Pre-treated patients (n = 165)) is reported as 10%. Also, the “Tumor Growth Delay” value in series [9] (ip, 100 mg/kg) is listed as 60%.
On to `CC[C@]1(O)C[C@@H]2CN(CCc3c([nH]c4ccccc34)[C@@](C(=O)OC)(c3cc4c(cc3OC)N(C)[C@H]3[C@@](O)(C(=O)OC)[C@H](OC(C)=O)[C@]5(CC)C=CCN6CC[C@]43[C@@H]65)C2)C1` [Vinblastine, vinblastine], for which, in [10], the “Hypoxia Cytotoxicity Ratio (HCR)” value is reported as 1. The “Median Survival” value in series [3] (P388, 5 mg/kg i.v. q3d×5) stood at 30.8 days; in [15] (5 mg/kg i.v. q3d×5), 24.3 days. The “Tumor Growth Delay” value in [3] (P388, 5 mg/kg i.v. q3d×5) was 149%; in series [15] (5 mg/kg i.v. q3d×5), 34%. Further, the IC50 in series [12] (read-out: IC50 Air) stood at 20 nM; in series [12] (read-out: IC50 Hypoxia) it was 17 nM. Moreover, the MTD was determined as 2.5 mg/kg in the series “in vivo [13]” and 5 mg/kg in “in vivo [16]”. In addition, the “median day of death” value in series [18] (4 mg/kg ip q3d×5) was determined as 10.8 days; in series [18] (6 mg/kg ip q3d×5), 9.8 days.
